How the values were obtained:
[1] = tested on: influenza virus; conditions: cited from earlier work
[2] = tested on: H1 and H2 viruses; conditions: cited from earlier work
[3] = tested on: H3 viruses; conditions: cited from earlier work
[4] = tested on: influenza viruses that have HA subtypes H1 and H2; conditions: cited from earlier work
[5] = tested on: influenza viruses that have HA subtype H3; conditions: cited from earlier work
[6] = tested on: A/Udorn/72 (H3N2) virus; experiment: Plaque assay in MDCK cells: EC50 by reduction of plaque number; assay type: cell-based, influenza virus; conditions: MDCK
[7] = tested on: pseudoHIV particles; experiment: HIV pseudovirus assay in X4 cells (luciferase); assay type: cell-based, HIV-1; conditions: Human immunodeficiency virus 1, read-out: HIV EC50
Procedure: A plasmid coding the HIV-1 genome, deleting the envelope protein gene and with a luciferase gene inserted, and a plasmid coding the envelope protein gene were cotransfected into 293T cells. After 48 hr, the supernatant containing pseudoHlV particles was collected for transducing assay. In 96 well plates, X4 cells were plated and incubated till confluent. The pseudoHlV particles were incubated with various concentrations of inhibitor compounds for one hour in room temperature. The particles were then used for tranducing X4 cells. The transduced X4 cells were lysed after 48 hr and the luciferase activity was measured in a luminometer.

Compound | EC50 [6] [µM] | EC50 [7] [µM] | further results
OC(CCN1CCCCC1)(c1ccccc1)C1C2CC3C(C2)C31 (stereo not shown) [Triperiden] | – | – | concentration inhibiting influenza virus replication [1]: 20 µg/mL
Stachyflin | – | – | EC50 [2]: μM range; activity against H3 viruses [3]: not H3
C[C@@H]1CCC[C@@H]2C[C@@H](NC(=O)c3cc(Cl)c(N)cc3O)CCN21 [BMY-27709] | – | – | EC50 [4]: 6 to 8 µM; activity against H3 [5]: not H3
COc1cc(OC)cc(-c2cc(CCCNC(=N)N)c(/C=C3\SC(=S)N(C4CC5CCC4C5)C3=O)o2)c1 (stereo not shown) [Compound 195] | < 0.1 | < 0.1 | –
O=C1/C(=C/c2oc(-c3ccc(Cl)cc3)cc2CCCN2CCNCC2)SC(=S)N1C1CC2CCC1C2 (stereo not shown) [Compound 186] | < 0.1 | < 0.1 | –
COc1cc(OC)cc(-c2cc(CCCn3nnc(CO)c3CO)c(/C=C3\SC(=S)N(C4CC5CCC4C5)C3=O)o2)c1 (stereo not shown) [Compound 200, (Z)-3-(bicyclo[2.2.1]heptan-2-yl)-5-((3-(3-(4′,5′-bis(hydroxymethyl)-1H-1′,2′,3′-triazol-1-yl)propyl)-5-(3′,5′-dimethoxyphenyl)furan-2-yl)methylene)-2-thioxothiazolidin-4-one] | < 0.1 | < 0.1 | –
COc1ccc(-c2ccc(/C=C3\SC(=S)N(C4C5CC6CC(C5)CC4C6)C3=O)o2)cc1OCC(=O)O (stereo not shown) [Compound 33] | < 0.1 | < 0.1 | –
O=C1/C(=C/c2oc(-c3ccc(F)cc3)cc2CCCO)SC(=S)N1C1CC2CCC1C2 (stereo not shown) [Compound 104] | < 0.1 | < 0.1 | –
O=C1/C(=C/c2oc(-c3ccc(Cl)cc3)cc2CCCO)SC(=S)N1C1CC2CCC1C2 (stereo not shown) [Compound 99] | < 0.1 | < 0.1 | –
COc1cc(OC)cc(-c2cc(CCCNC(=O)[C@@H](N)CC(N)=O)c(/C=C3\SC(=S)N(C4CC5CCC4C5)C3=O)o2)c1 (stereo partly shown) [Compound 168] | < 0.1 | < 0.1 | –

Reference: patent US8933075B2, “Compounds useful as antiviral agents, compositions, and methods of use” (priority 2010, dated 2015)
